pIC50: −log10 of the molar value. Active and inactive are the calls of the source.
Tests used:
[1] = biological target: T1, DNA repair protein RAD51 homolog 1 (Homo sapiens) (UniProt Q06609); test: Stabilization of RAD51 foci in human MCF7 cells assessed as increase in RAD51 positive cells at 20 uM pretreated with cisplatin for 8 hrs followed by compound addition and measured after 24 hrs by immunofluorescence microscopic analysis; type: cell-based
T1 sequence (whole entry): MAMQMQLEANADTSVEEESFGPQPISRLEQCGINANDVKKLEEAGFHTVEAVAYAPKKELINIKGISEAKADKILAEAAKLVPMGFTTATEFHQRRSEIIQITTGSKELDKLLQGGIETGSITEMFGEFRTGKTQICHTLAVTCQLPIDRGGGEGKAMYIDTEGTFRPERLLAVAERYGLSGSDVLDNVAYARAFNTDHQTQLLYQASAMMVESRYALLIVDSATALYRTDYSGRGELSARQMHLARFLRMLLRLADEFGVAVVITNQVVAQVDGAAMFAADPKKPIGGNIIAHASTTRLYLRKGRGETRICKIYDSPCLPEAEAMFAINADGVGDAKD

[2] = Toxicity in nude mouse xenografted with human MCF7 cells assessed as morphological changes in spleen at 50 mg/kg, po administered via oral gavage and measured after 30 days; type: organism-based; conditions: in vivo, 720 h, time 30 day
MCF7 [3] = test: Induction of DNA damage in human MCF7 cells expressing wild type RECQL5 assessed as double strand breaks by measuring increase in phosphorylation of ATR at S428 residue at 20 uM measured up to 24 hrs by Western blot analysis; type: functional, cell-based; conditions: time hrs <=24
MCF7 [4] = test: Induction of mitotic catastrophe phenotype in human MCF7 cells assessed as fused nucleus at 20 uM pretreated with cisplatin for 8 hrs followed by compound addition and measured after 24 hrs by immunofluorescence microscopic analysis; type: functional, cell-based
MCF7 [5] = test: Cytotoxicity against human MCF7 cells expressing wild type RECQL5 assessed as inhibition of colony formation measured after 8 to 10 days by clonogenic survival assay; type: functional, cell-based
MCF7 [6] = test: Induction of apoptosis in human MCF7 cells expressing wild type RECQL5 assessed as increase in sub-G1 cell population measured after 72 hrs by propidium iodide/RNase A staining based flow cytometric analysis; type: functional; conditions: dose 2.5-20 µM
MCF7 [7] = test: Effect on homologous recombinant repair in human MCF7 cells expressing wild type RECQL5 assessed as accumulation of RAD50 protein on chromatin at 20 uM incubated for 4 to 24 hrs by Western blot analysis; type: functional, cell-based; conditions: time 4-24 hrs, TDE = time-dependent effect
MCF7 [8] = test: Induction of DNA damage in human MCF7 cells expressing wild type RECQL5 assessed as double strand breaks by measuring increase in phosphorylation of ATM at S1981 residue at 20 uM measured up to 24 hrs by Western blot analysis; type: functional, cell-based; conditions: time hrs <=24
MCF7 [9] = test: Induction of mitotic catastrophe phenotype in human MCF7 cells assessed as micronucleus formation at 20 uM pretreated with cisplatin for 8 hrs followed by compound addition and measured after 24 hrs by immunofluorescence microscopic analysis; type: functional, cell-based
MCF7 [10] = test: Induction of DNA damage in RECQL5 knock out human MCF7 cells assessed as double strand breaks by measuring increase in phosphorylation of CHK1 at S345 residue at 20 uM measured up to 24 hrs by Western blot analysis; type: functional, cell-based; conditions: time hrs <=24
MCF7 [11] = test: Cytotoxicity against RECQL5 knock out human MCF7 cells expressing wild type RECQL5-FLAG assessed as reduction in colony formation at 10 uM measured after 8 to 10 days by clonogenic survival assay; type: functional, cell-based; conditions: time 8-10 day
[12] = Toxicity in nude mouse xenografted with human MCF7 cells assessed as body weight loss at 50 mg/kg, po administered via oral gavage for 30 days and measured every 5 days; type: organism-based; conditions: in vivo, 720 h, time 30 day
MCF7 [13] = test: Effect on homologous recombinant repair in RECQL5 knock out human MCF7 cells assessed as accumulation of NBS1 protein on chromatin at 20 uM incubated for 4 to 24 hrs by Western blot analysis; type: functional, cell-based; conditions: time 4-24 hrs
[14] = Cytotoxicity against human MCF-10A cells expressing RECQL5 assessed as cell growth inhibition measured after 72 hrs by MTT assay; type: toxicity, cell-based
MDA-MB-231 [15] = test: Cytotoxicity against ER/PR/HER2-negative human MDA-MB-231 cells expressing wild type RECQL5 and p53 mutant assessed as reduction in colony formation measured after 8 to 10 days by clonogenic survival assay; type: functional, cell-based; conditions: time 8-10 day
MDA-MB-231 [16] = test: Induction of apoptosis in RECQL5 depleted human MDA-MB-231 cells assessed as cell death measured after 72 hrs by propidium iodide/RNase A staining based flow cytometric analysis; type: functional
MCF7 [17] = test: Induction of mitotic catastrophe phenotype in human cisplatin-resistant MCF7 cells assessed as nuclear bridge formation at 20 uM pretreated with cisplatin for 8 hrs followed by compound addition and measured after 24 hrs by immunofluorescence microscopic analysis; type: functional, cell-based
MCF7 [18] = test: Cytotoxicity against human MCF7 cells with shRNA-mediated BLM depletion assessed as reduction in cell viability at 6 to 25 uM measured after 8 to 10 days by clonogenic survival assay; type: functional, cell-based; conditions: dose 6-25 µM, time 8-10 day
MCF7 [19] = test: Induction of apoptosis in RECQL5 knock out human MCF7 cells assessed as increase in sub-G1 cell population measured after 72 hrs by propidium iodide/RNase A staining based flow cytometric analysis; type: functional; conditions: dose 2.5-20 µM
MCF7 [20] = test: Cytotoxicity against RECQL5 knock out human MCF7 cells assessed as inhibition of colony formation measured after 8 to 10 days by clonogenic survival assay; type: functional, cell-based
Homo sapiens = organism: Homo sapiens; test: Inhibition of His-tagged human RECQL5 binding to [gamma 32P] labeled DNA substrate assessed as RECQL5-DNA complex formation at 10 uM preincubated for 30 mins followed by substrate addition and measured after 15 mins by gel electrophoresis and autoradiography method; conditions: time 45.0 min
MCF7 [21] = test: Induction of mitotic catastrophe phenotype in human cisplatin-resistant MCF7 cells assessed as fused nucleus at 20 uM pretreated with cisplatin for 8 hrs followed by compound addition and measured after 24 hrs by immunofluorescence microscopic analysis; type: functional, cell-based
[22] = Toxicity in […] mouse assessed as fold change in SGPT level at 100 mg/kg, po administered as single dose via gavage measured after 30 days relative to control; type: organism-based; conditions: in vivo, 720 h, time 30 day
MCF7 [23] = test: Effect on homologous recombinant repair in RECQL5 knock out human MCF7 cells assessed as accumulation of MRE11 protein on chromatin at 20 uM incubated for 4 to 24 hrs by Western blot analysis; type: functional, cell-based; conditions: time 4-24 hrs
[24] = Toxicity in nude mouse xenografted with human MCF7 cells assessed as morphological changes in liver at 50 mg/kg, po administered via oral gavage and measured after 30 days; type: organism-based; conditions: in vivo, 720 h, time 30 day
MCF7 [25] = test: Induction of DNA damage in RECQL5 knock out human MCF7 cells assessed as double strand breaks by measuring increase in phosphorylation of ATM at S1981 residue at 20 uM measured up to 24 hrs by Western blot analysis; type: functional, cell-based; conditions: time hrs <=24
[26] = biological target: T1, DNA repair protein RAD51 homolog 1 (Homo sapiens); test: Stabilization of RAD51 foci in human cisplatin-resistant MCF7 cells assessed as increase in RAD51 positive cells at 20 uM pretreated with cisplatin for 8 hrs followed by compound addition and measured after 24 hrs by immunofluorescence microscopic analysis; type: cell-based
[27] = Toxicity in […] mouse assessed as fold change in creatinine level at 100 mg/kg, po administered as single dose via gavage measured after 30 days relative to control; type: organism-based; conditions: in vivo, 720 h, time 30 day

O=C(Nc1cc(C(F)(F)F)cc(C(F)(F)F)c1)N[C@@H](c1ccccc1)c1nnc(SCc2ccccc2)o1
33.4 µM: IC20 at 72 h [14]
Non-Toxic: Activity [2] | Activity [12] | Activity [24]
4.71: pIC50 (MCF7 [20])
1.05: fold change (FC) [27]
inactive: Activity (MCF7 [10]) | Activity (MCF7 [13]) | Activity (MDA-MB-231 [16]) | inhibition (Homo sapiens) | Activity (MCF7 [23]) | Activity (MCF7 [25])
5.32: pIC50 (MCF7 [5])
0.92: fold change (FC) [22]
active: Activity [1] | Activity (MCF7 [3]) | Activity (MCF7 [4]) | Activity (MCF7 [6]) Dose-Dependent Effect | Activity (MCF7 [7]) Tde | Activity (MCF7 [8]) | Activity (MCF7 [9]) | Activity (MCF7 [11]) | Activity (MDA-MB-231 [15]) | Activity (MCF7 [17]) | Activity (MCF7 [18]) | Activity (MCF7 [19]) Dose-Dependent Effect | Activity (MCF7 [21]) | Activity [26]

Reference: ChEMBL document CHEMBL5038569, “Targeting RECQL5 Functions, by a Small Molecule, Selectively Kills Breast Cancer in Vitro and in Vivo” (J Med Chem, 2021)
